Experimental data reported in paper PMC11040104, “The two C. elegans class VI myosins, SPE-15/HUM-3 and HUM-8, share similar motor properties, but have distinct developmental and tissue expression patterns” (Frontiers in Physiology, 2024).

Experiments:
[1] = molecular target: T1, SPE-15/HUM-3 (Caenorhabditis elegans, UniProt Q9TZI9); test: stopped-flow pyrene-actin, ADP/ATP competition; assay type: binding; conditions: bound to pyrene-labelled rabbit F-actin; competition with ATP; pH 7.0, 20 °C, 25 mM KCl, 5 mM MgCl2, probably misprint for µM; read-out: affinity for ADP
T1 construct: motor-neck domain residues 1-841, N-terminal 6xHis, C-terminal GSG linker + RGSIDTWV tag kept; co-expressed with human calmodulin in ExpiSf9; with Actin, alpha skeletal muscle (rabbit, Oryctolagus cuniculus); Calmodulin (human light chain, co-expressed)

[2] = molecular target: T2, human MYO6 (Homo sapiens, UniProt Q9UM54); test: stopped-flow pyrene-actin, ADP/ATP competition; assay type: binding; conditions: bound to pyrene-labelled rabbit F-actin; competition with ATP; pH 7.0, 20 °C, 25 mM KCl, 5 mM MgCl2, probably misprint for µM; read-out: affinity for ADP
T2 construct: with Actin, alpha skeletal muscle (rabbit, Oryctolagus cuniculus); Calmodulin (light chain)

[3] = molecular target: T3, HUM-8 (Caenorhabditis elegans, UniProt U4PBY2); test: stopped-flow pyrene-actin, ADP/ATP competition; assay type: binding; conditions: bound to pyrene-labelled rabbit F-actin; competition with ATP; pH 7.0, 20 °C, 25 mM KCl, 5 mM MgCl2, probably misprint for µM; read-out: affinity for ADP
T3 construct: motor-neck domain residues 61-904, N-terminal 6xHis, C-terminal GSG linker + RGSIDTWV tag kept; co-expressed with human calmodulin in ExpiSf9; with Actin, alpha skeletal muscle (rabbit, Oryctolagus cuniculus); Calmodulin (human light chain, co-expressed)
T3 sequence (U4PBY2 61-904): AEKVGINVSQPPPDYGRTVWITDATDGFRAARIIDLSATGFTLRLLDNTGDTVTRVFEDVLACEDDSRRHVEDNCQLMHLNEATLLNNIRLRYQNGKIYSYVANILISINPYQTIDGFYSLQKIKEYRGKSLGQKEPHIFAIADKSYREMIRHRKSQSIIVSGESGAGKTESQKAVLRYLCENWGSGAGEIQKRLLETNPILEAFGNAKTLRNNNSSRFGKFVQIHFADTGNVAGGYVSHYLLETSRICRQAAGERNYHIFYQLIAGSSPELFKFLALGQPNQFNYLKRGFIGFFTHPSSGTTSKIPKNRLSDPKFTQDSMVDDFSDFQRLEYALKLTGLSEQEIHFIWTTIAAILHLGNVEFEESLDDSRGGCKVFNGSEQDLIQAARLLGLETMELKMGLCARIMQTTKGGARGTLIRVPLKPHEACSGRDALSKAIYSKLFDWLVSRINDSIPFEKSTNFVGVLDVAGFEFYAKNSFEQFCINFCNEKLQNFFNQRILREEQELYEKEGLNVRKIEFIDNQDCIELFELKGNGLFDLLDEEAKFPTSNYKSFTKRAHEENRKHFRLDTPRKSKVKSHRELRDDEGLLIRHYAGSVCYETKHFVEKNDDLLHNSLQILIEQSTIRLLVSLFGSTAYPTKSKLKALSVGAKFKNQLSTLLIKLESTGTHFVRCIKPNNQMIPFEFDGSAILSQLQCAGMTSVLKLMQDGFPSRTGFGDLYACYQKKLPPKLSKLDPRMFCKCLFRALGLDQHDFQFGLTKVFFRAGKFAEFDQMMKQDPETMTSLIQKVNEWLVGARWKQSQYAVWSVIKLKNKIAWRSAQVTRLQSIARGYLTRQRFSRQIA

[4] = molecular target: T2, human MYO6; test: stopped-flow, ATP-induced dissociation of pyrene-actin.myosin; assay type: binding; conditions: bound to pyrene-labelled rabbit F-actin, pH 7.0, 20 °C, 25 mM KCl, 5 mM MgCl2, not an affinity
[5] = molecular target: T3, HUM-8; test: as above; assay type: binding; conditions: bound to pyrene-labelled rabbit F-actin, pH 7.0, 20 °C, 25 mM KCl, 5 mM MgCl2, not an affinity
[6] = molecular target: T1, SPE-15/HUM-3; test: as above; assay type: binding; conditions: bound to pyrene-labelled rabbit F-actin, pH 7.0, 20 °C, 25 mM KCl, 5 mM MgCl2, not an affinity
[7] = molecular target: rabbit muscle actin, pyrene-labelled (F-actin) (rabbit) (UniProt P68135)
[8] = molecular target: rabbit muscle actin, pyrene-labelled (F-actin) (rabbit) (UniProt P68135); test: other fluorescence titration; stopped-flow; amplitude of ATP-induced dissociation of pyrene-actin.myosin against myosin concentration, quadratic fit; 20°C, 20 mM MOPS pH 7.0, 25 mM KCl, 5 mM MgCl2, 1 mM DTT

T1 sequence (Q9TZI9 1-841): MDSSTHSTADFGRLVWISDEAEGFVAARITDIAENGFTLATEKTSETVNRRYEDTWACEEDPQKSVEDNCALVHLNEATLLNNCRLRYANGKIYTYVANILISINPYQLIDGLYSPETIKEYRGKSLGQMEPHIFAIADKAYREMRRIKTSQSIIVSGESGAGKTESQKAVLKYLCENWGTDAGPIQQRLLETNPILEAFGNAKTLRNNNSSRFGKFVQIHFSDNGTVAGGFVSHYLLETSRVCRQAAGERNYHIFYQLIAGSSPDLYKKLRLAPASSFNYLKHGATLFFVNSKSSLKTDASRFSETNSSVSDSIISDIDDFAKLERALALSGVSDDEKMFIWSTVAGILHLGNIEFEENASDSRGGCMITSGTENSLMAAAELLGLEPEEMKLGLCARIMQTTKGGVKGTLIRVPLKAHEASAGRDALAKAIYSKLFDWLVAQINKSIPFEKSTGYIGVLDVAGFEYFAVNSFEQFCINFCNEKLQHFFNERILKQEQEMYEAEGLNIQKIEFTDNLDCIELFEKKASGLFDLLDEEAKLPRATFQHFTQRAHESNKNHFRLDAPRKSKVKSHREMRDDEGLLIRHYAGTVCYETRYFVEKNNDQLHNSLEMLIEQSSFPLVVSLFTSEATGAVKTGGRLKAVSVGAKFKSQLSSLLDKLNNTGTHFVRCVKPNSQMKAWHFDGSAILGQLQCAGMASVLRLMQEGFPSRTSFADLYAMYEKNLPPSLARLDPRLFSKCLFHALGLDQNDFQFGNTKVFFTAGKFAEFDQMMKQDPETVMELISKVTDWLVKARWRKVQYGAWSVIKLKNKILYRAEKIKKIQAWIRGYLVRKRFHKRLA
Chain of human MYO6 motor domain (Q9UM54 whole entry, the tested form may be a part): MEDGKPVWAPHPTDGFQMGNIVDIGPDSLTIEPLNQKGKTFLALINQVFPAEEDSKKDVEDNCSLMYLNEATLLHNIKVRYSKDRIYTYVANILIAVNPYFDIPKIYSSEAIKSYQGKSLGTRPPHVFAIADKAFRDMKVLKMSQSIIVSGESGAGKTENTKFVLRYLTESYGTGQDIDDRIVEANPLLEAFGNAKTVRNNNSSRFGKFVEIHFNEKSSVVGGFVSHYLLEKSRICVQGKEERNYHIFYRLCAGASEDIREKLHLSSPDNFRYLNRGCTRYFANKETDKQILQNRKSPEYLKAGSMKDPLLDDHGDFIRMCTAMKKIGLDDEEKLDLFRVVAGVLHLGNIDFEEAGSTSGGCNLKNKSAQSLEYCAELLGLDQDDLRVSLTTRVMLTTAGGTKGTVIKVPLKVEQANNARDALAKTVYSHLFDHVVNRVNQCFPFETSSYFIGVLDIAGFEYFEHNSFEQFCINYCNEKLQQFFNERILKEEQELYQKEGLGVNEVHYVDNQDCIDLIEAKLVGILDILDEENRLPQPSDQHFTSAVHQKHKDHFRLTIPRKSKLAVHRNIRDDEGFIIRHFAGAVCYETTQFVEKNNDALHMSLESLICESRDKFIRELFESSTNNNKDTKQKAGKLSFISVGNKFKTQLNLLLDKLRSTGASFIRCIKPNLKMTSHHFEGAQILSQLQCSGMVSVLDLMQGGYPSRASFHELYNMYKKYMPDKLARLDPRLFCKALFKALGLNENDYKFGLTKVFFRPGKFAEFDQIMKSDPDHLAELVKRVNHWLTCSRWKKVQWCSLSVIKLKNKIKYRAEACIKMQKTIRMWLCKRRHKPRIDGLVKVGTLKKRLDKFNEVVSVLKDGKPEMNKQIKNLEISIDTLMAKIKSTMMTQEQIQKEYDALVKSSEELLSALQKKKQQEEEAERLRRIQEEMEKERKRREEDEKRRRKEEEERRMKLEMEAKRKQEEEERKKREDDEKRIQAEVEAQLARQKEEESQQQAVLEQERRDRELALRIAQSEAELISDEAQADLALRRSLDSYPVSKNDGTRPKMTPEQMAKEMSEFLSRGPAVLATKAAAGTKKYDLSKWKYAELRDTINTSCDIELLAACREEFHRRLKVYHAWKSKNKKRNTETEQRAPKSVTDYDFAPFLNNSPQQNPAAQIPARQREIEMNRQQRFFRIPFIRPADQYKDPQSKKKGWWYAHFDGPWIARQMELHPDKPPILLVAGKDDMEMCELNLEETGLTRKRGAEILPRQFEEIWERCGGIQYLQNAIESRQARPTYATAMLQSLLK
T2 sequence (Q9UM54 1-840 limits assumed): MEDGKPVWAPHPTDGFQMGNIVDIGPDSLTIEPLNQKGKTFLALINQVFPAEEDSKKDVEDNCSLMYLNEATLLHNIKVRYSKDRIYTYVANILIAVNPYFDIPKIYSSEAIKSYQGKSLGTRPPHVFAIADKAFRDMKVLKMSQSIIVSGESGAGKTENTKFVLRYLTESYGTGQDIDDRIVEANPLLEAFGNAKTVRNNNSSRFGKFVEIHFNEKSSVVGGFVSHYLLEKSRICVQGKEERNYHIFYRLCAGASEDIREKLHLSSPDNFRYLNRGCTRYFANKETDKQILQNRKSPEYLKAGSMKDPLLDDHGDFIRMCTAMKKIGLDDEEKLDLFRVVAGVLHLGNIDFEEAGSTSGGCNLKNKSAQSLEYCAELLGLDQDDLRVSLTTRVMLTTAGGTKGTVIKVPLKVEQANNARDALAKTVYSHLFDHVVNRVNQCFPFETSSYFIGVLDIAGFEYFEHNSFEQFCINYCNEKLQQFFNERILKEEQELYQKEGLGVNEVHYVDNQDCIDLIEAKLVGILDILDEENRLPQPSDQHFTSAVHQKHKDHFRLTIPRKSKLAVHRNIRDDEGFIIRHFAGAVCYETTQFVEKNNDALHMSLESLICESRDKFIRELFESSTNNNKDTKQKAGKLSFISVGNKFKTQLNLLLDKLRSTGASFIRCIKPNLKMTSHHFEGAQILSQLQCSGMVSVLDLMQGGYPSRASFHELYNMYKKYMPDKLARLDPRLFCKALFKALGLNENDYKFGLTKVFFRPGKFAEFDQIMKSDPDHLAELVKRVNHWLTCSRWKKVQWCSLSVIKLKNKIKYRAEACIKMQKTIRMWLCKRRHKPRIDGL

Work on Nc1ncnc2c1ncn2[C@@H]1O[C@H](COP(=O)(O)OP(=O)(O)O)[C@@H](O)[C@H]1O [ADP] yielded a Kd [1] of 18000 ± 4000 µM, a Kd [2] of 6000 ± 800 µM and a Kd [3] of 20000 ± 2000 µM.
Nc1ncnc2c1ncn2[C@@H]1O[C@H](COP(=O)(O)OP(=O)(O)OP(=O)(O)O)[C@@H](O)[C@H]1O [ATP] was tested, and the “apparent second order rate constant for ATP binding” value (“apparent second order rate constant” below) [4] was 5 ± 0.4 mM⁻¹ s⁻¹, the “apparent second order rate constant” value [5] was 3 ± 0.5 mM⁻¹ s⁻¹ and the “apparent second order rate constant” value [6] was 9 ± 0.8 mM⁻¹ s⁻¹.
“human MYO6 motor domain (from UniProt Q9UM54 1-1294) (domain or fragment)” was tested, and the in vitro motility assay: gliding velocity of rhodamine-phalloidin labelled actin filaments on surface-immobilised myosin [7] was 55 nm/s and the Kd [8] was 15 nM.
